US5126057A, “Disinfecting with N,N'-dihaloimidazolidin-4-ones” (Auburn Research Foundation, priority 1991, dated 1992)

Experiments:
[1] = Prevention of the growth of algae in water by Compound 1; format: cell-based; settings: algal aquarium, pH 6.8, start 6.14 mg per liter, read-out: Percent Total Potential Positive Chlorine Remaining
Method: (§1) Two 10 gallon aquariums were each filled with 35 liters of Bristol's solution at pH 6.8 as described in example 16. To aquarium A was added 6.14 milligrams per liter total potential positive chlorine from 0.638 grams of 1,3-dichloro-2,2,5,5-tetramethylimidazolidin-4-one (Compound 1) as prepared in example 1. Aquarium B was used as a control with no halogenated compound added. Then 5 milliliters of an inoculum containing the algae Oscillatoria lutea, Anabaena cylindrica, and Chlorella pyrenoidosa with an absorbance of 0.14 at 750 nanometers was added to each aquarium. Constant aeration and illumination as described in example 16 were provided throughout the experiment. The laboratory temperature varied between 21° and 24° C. during the course of the experiment. Both aquariums were sampled periodically such that the absorption at 750 nanometers could be measured with a Milton Roy Spectronic 301 spectrophotometer. Aquarium A was also sampled for total potential positive chlorine using standard iodometric titration.

[2] = tested on: Oscillatoria lutea, Anabaena cylindrica, and Chlorella pyrenoidosa; test: as above; format: cell-based
Method: as §1

- remaining at 24 h ([1]; day 1): 70.1%
- remaining at 96 h ([1]; day 4): 53.4%
- remaining at 120 h ([1]; day 5): 52.1%
- remaining at 144 h ([1]; day 6): 51%
- remaining at 168 h ([1]; day 7): 49.5%
- remaining at 192 h ([1]; day 8): 48.9%
- remaining at 264 h ([1]; day 11): 45.8%
- remaining at 288 h ([1]; day 12): 45.6%
- remaining at 312 h ([1]; day 13): 44.8%
- remaining at 336 h ([1]; day 14): 43.3%
- remaining at 360 h ([1]; day 15): 44.8%
- remaining at 432 h ([1]; day 18): 41.9%
- Percent Total Potential Positive Chlorine Remaining ([2]; start 6.14 mg per liter, day 0): 100.0%
Compound: CC1(C)C(=O)N(Cl)C(C)(C)N1Cl [Compound 1, 1,3-dichloro-2,2,5,5-tetramethylimidazolidin-4-one]
- green turbid tint (in words) ([2]; 6.14 mg per liter Cl+, 18 day experiment): did not develop such a color at any time during the 18 day experiment
- A750 (Absorbance at 750 Nanometers) ([2]; 6.14 mg per liter Cl+, day 7): 0.002
- A750 (Absorbance at 750 Nanometers) ([2]; 6.14 mg per liter Cl+, day 11): 0.0
- A750 (Absorbance at 750 Nanometers) ([2]; 6.14 mg per liter Cl+, day 12): 0.001
- A750 (Absorbance at 750 Nanometers) ([2]; 6.14 mg per liter Cl+, day 13): 0.0
- A750 (Absorbance at 750 Nanometers) ([2]; 6.14 mg per liter Cl+, day 14): 0.001
- A750 (Absorbance at 750 Nanometers) ([2]; 6.14 mg per liter Cl+, day 15): 0.0
- A750 (Absorbance at 750 Nanometers) ([2]; 6.14 mg per liter Cl+, day 18): 0.0
- prevention of the growth of algae (in words) ([2]; as long as a measurable amount of the compound is present): effective at preventing the growth of algae in water
